Test results: patent publication US6884772B1, “Depilatories and agents for external use” (Kao Corporation, priority 1999, dated 2005)
Where no end group is shown, it is not given here.

Tests used:
[1] = tested on: dorsal part of a guinea pig; experiment: Depilation inducing effects of endothelin (intracutaneous administration); format: in vivo; details: 0.3 μg in 0.1% BSA/PBS, 50 μL/site, 10 days after the administration
Experimental: (§1) A solution of endothelin-1 (0.3 μg) in phosphate buffer solution (PBS), which contained 0.1% of bovine serum albumin (BSA), was intracutaneously administered (at 50 μL/site) to the dorsal part of a guinea pig.

[2] = tested on: dorsal parts of guinea pigs; experiment: Growth-phase hair follicle inhibitory effects (number of hair shafts grown per unit area); format: in vivo, guinea pig; details: 1 μg each, intracutaneous, 50 μL/site, fifth day after the administration (FIG. 1)
Experimental: Solutions (1 μg, each) of endothelin-1, endothelin-2 and endotherin-3 in aliquots of phosphate buffer solution (PBS), which contained 0.1% of bovine serum albumin (BSA), were intracutaneously administered (at 50 μL/site) to the dorsal parts of guinea pigs, respectively, from which hair had been cut off by a hair clipper. Three days after the administration, hair was again cut off by a hair clipper from the administered sites. Two days after the cutting, the numbers of hair shafts grown per unit area at the administered sites were counted.

[3] = tested on: growth-phase hair follicle; experiment: Structural changes of hair follicle structure (hematoxylin-eosin staining of dorsal skin); format: in vivo, guinea pig; details: 0.3 μg intracutaneous
Experimental: as §1, with “1.1%” for “0.1%”, “pig. After that, samples were collected day after day from the administered dorsal skin, and tissue samples were prepared by hematoxylin-eosin staining.” for “pig.”

[4] = tested on: hair follicle organs in growth phase from a human scalp tissue; experiment: Growth inhibitory effects on organ-cultured hair follicles; format: cell-based
Experimental: From a human scalp tissue, hair follicle organs in growth phase were surgically isolated under a stereomicroscope. Following a conventional procedure [Philpott M.P., et al., J. Cell Sci., 97, 463-471 (1990), the isolated hair follicles were subjected to organ culture. Described specifically, endothelin-1 was added to William's E medium which contained L-glutamine (2mM), hydrocortisone (10ng/mL), insulin ([…]) sodium selenite (10 ng/mL) and transferrin (10 μg/mL).

Compound | Hair shaft falling-off and formation of depilation spot at the administered site [1] | Number of hair shafts grown per unit area at the administered sites [2] | Hair follicle histology ([3]; 1st day after the administration (FIG. 2)) | Hair follicle histology ([3]; 3rd day after the administration (FIG. 2)) | Percent regression of growth-phase hair follicles ([4]; 10 ng/mL, Day 1 of incubation) [%] | Percent regression of growth-phase hair follicles ([4]; 10 ng/mL, Day 2 of incubation) [%] | Percent regression of growth-phase hair follicles ([4]; 100 ng/mL, Day 1 of incubation) [%] | Percent regression of growth-phase hair follicles ([4]; 100 ng/mL, Day 2 of incubation) [%] | Grown hair follicle lengths (hair growth inhibition) ([4]; day 4 of incubation and the subsequent days, compared with control group without endothelin-1 (FIG. 3)) | Structural change of incubated growth-phase hair follicles ([4]; during the incubation period (FIG. 4))
CC[C@H](C)[C@H](NC(=O)[C@H](CC(=O)O)NC(=O)[C@H](CC(C)C)NC(=O)[C@H](Cc1c[nH]cn1)NC(=O)[C@@H]1CSSC[C@H](N)C(=O)N[C@@H](CO)C(=O)N[C@H]2CSSC[C@H](NC(=O)[C@H](CCC(=O)O)NC(=O)[C@H](CCCCN)NC(=O)[C@H](CC(=O)O)NC(=O)[C@H](CCSC)NC(=O)[C@H](CC(C)C)NC(=O)[C@H](CO)NC(=O)[C@H](CO)NC2=O)C(=O)N[C@@H](C(C)C)C(=O)N[C@@H](Cc2ccc(O)cc2)C(=O)N[C@@H](Cc2ccccc2)C(=O)N1)C(=O)N[C@H](C(=O)N[C@@H](Cc1c[nH]c2ccccc12)C(=O)O)[C@@H](C)CC [Endothelin-1, endothelin-1] | hair shaft falling-off and formation of a marked depilation spot were observed | significant (p<0.01) decrease in the number of hair shafts | regressed image of a growth-phase hair follicle was observed | image of a follicular tissue in transition phase was presented | 0.0 | 0.0 | 0.0 | 0.0 | significant hair growth inhibitory effects were observed | structural change of the endothelin-treated, growth-phase hair follicles into those similar to resting-phase hair follicles was observed
endothelin-3 (CTCFTYKDKECVYYCHLDIIW; ends and bridges not checked; cysteine pairing not given here; UniProt P14138 97-117, looked up) [endotherin-3, peptide composed of 21 amino acid residues, isoform of endothelin] |  | significant (p<0.01) decrease in the number of hair shafts |  |  |  |  |  |  |  | 
endothelin-2 (CSCSSWLDKECVYFCHLDIIW; ends and bridges not checked; cysteine pairing not given here; UniProt P20800 49-69, looked up) [peptide composed of 21 amino acid residues, isoform of endothelin] |  | significant (p<0.01) decrease in the number of hair shafts |  |  |  |  |  |  |  | 
